# Target: T1, Alpha-1-antitrypsin [E366K] (Homo sapiens, UniProt P01009, E366K)
# T1 construct: gene SERPINA1
# Experiment: Biochemical Assay (Z-AAT Elastase Activity Assay)
# Description: Assay Protocol: Pre-Incubation of Z-AAT with Compounds1. 7.5 μL of Z-AAT (20 nM) was incubated with compounds 1-227 in a GCA plate for 1 hour at room temperature. Addition of hNE1. 7.5 ul of HNE solution (3 nM in PBS+0.01% BRIJ35) added into GCA plate2. Incubate plate for 30 minutes to allow Z-AAT/HNE suicide complex formation. Addition of Substrate and Read Plate on PE Envision1. 7.5 μL of substrate (300 μM solution of elastase substrate (ES V) in PBS+0.01% BRIJ35) dispensed per well into GCA plate2. Immediately read on Envision.
# T1 sequence (P01009 25-418 E366K limits assumed): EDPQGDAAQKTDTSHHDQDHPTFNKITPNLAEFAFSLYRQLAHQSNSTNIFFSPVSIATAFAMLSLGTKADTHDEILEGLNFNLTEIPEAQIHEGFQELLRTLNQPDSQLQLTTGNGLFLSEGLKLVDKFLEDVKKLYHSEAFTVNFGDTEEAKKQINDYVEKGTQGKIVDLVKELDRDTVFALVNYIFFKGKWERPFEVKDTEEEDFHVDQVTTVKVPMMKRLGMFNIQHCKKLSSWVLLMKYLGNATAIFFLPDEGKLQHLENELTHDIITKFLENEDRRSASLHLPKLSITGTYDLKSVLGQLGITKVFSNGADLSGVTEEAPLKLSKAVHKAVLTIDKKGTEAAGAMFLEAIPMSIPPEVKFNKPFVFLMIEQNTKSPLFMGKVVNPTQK
row,IC50,Compound
1,> 5 µM,"Cc1cc(-n2c(C(C)C)c([C@H]3C[C@@H]3C(=O)O)c3cc(O)c(F)cc32)ccc1F [US20230339915, Compound 129]"
2,> 5 µM,"Cc1cc(-n2c(C(C)C)c(C3CC3(C)C(=O)O)c3cc(O)ccc32)ccc1F (centres undefined) [US20230339915, Compound 130]"
3,< 2 µM,"Cc1cc(-n2c(C(C)C)c(-c3ccc(C(=O)O)cc3)c3cc(O)ccc32)ccc1F [US20230339915, Compound 167]"
4,< 2 µM,"Cc1cc(-n2c(C(C)C)c(-c3ccc(C(=O)O)cc3C)c3cc(O)ccc32)ccc1F [US20230339915, Compound 170]"
